How the values were obtained:
IRAK-4 = target: T1, IRAK-4 (Homo sapiens, UniProt Q9NWZ3); assay: IRAK-4 ELISA, PBMC degradation; format: cell-based; design: endogenous in cells; host or cells: PBMC; settings: treated overnight
T1 sequence (Q9NWZ3 1-460): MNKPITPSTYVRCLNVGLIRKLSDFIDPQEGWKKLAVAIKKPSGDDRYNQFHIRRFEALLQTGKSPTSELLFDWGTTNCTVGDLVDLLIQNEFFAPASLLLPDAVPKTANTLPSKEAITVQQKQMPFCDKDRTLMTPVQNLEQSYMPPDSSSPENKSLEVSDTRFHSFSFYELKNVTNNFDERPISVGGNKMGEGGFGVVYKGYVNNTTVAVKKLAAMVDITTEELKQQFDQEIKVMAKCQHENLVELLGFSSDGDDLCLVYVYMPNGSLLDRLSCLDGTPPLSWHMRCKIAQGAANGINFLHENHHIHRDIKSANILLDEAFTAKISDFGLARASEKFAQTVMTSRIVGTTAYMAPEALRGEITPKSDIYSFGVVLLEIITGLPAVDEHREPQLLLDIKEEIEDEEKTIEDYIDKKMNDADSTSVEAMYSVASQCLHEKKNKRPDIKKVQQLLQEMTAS
Procedure, shortened: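 Overnight compound treatment, started on the day of plating, of OCI-Ly10 (1×10^6/ml) and PBMC (2×10^6/ml) cultures. Lysates are collected and IRAK-4 content is read by sandwich ELISA.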

IL6 = assay: LPS stimulated IL6 inhibition assay in PBMC; format: cell-based; settings: Homo sapiens, PBMC, 24 h, human PBMCs, LPS stimulation, compound overnight, IL6 by MSD after 24 hrs
Procedure: IL-1β, LPS, or R848 Stimulated IL6 Inhibition and IL-1β Stimulated IL8 Inhibition Assay
Human PBMC cells were seeded at 2.0×10^6 cells/mL, treated with compound overnight, and dosed with the EC50 concentration of each stimulant (either IL-1B. LPS, or R848) was determined for each donor. After 24 hrs, media was collected and analyzed by MSD for IL6 and/or IL8 levels.

Structure (SMILES) | DC50 (IRAK-4) | Dmax (IRAK-4) | PBMC DC90 (IRAK-4) | Dmax (IL6; read-out: LPS Stim IL6 inhibition Dmax) | IC50 (IL6; read-out: LPS stim IL6 inhibition IC50) | PBMC Dmax (IRAK-4)
CC(C)Oc1cc2nn(C3CCN(CC4(F)CN(c5ccc6c(c5)C(=O)N(C5CCC(=O)NC5=O)C6=O)C4)CC3)cc2cc1NC(=O)c1cnn2cccnc12 (centres unmarked) [Example 265, N-[2-[1-[[1-[2-(2,6-dioxo-3-piperidyl)-1,3-dioxo-isoindolin-5-yl]-3-fluoro-azetidin-3-yl]methyl]-4-piperidyl]-6-isopropoxy-indazol-5-yl]pyrazolo[1,5-a]pyrimidine-3-carboxamide] | 1 to 5 nM | ≥ 90% | A (A represents a DC90 value <10.0 nM) | ≥ 90% | 10 to 50 nM | –
COc1cc(N2CC(CN3CCC(N4Cc5cc(NC(=O)c6cnn7cccnc67)c(OC(C)C)nc5C4=O)CC3)C2)cc2c1C(=O)N(C1CCC(=O)NC1=O)C2=O (centres unmarked) [Example 397, N-(6-(1-((1-(2-(2,6-dioxopiperidin-3-yl)-7-methoxy-1,3-dioxoisoindolin-5-yl)azetidin-3-yl)methyl)piperidin-4-yl)-2-isopropoxy-7-oxo-6,7-dihydro-5H-pyrrolo[3,4-b]ipyridin-3-yl)pyrazolo [1,5-a]pyrimidine-3-carboxamide] | < 1 nM | – | A (A represents a DC90 value <10.0 nM) | – | – | A (A represents a Dmax value ≥90)
CC(C)Oc1nc2c(cc1NC(=O)c1cnn3cccnc13)CN(C1CCN(CCc3ccc4c(c3)CN(C3CCC(=O)NC3=O)C4=O)CC1)C2=O (centres unmarked) [Example 399] | 1 to 5 nM | ≥ 90% | B (B represents a DC90 value ≥10.0 nM and <25.0 nM) | – | – | –
CC(C)Oc1nc2c(cc1NC(=O)c1cnn3cccnc13)CN(C1CCN(CC3CN(c4ccc5c(c4)CN(C4CCC(=O)NC4=O)C5=O)C3)CC1)C2=O (centres unmarked) [Example 401] | 1 to 5 nM | ≥ 90% | B (B represents a DC90 value ≥10.0 nM and <25.0 nM) | – | – | –
COc1cc(N2CC(CN3CCC(N4Cc5cc(NC(=O)c6cnn7cccnc67)c(OC(C)C)nc5C4=O)CC3)C2)cc2c1C(=O)N(C1CCC(=O)NC1=O)C2 (centres unmarked) [Example 403] | 1 to 5 nM | ≥ 90% | C (C represents a DC90 value ≥25.0 nM and <50 nM) | – | – | –
O=C1CCC(N2Cc3cc(N4CC(N5CCC(N6Cc7cc(NC(=O)c8cnn9cccnc89)c(N8CCOCC8)nc7C6=O)CC5)C4)ccc3C2=O)C(=O)N1 (centres unmarked) [Example 404, N-[6-[1-[1-[2-(2,6-dioxo-3-piperidyl)-1-oxo-isoindolin-5-yl]azetidin-3-yl]-4-piperidyl]-2-morpholino-7-oxo-5H-pyrrolo[3,4-b]pyridin-3-yl]pyrazolo[1,5-a]pyrimidine-3-carboxamide] | ≥ 10 nM | 80 to 90% | D (D represents a DC90 value ≥50 nM) | – | – | –
O=C1CCC(N2C(=O)c3ccc(N4CC(N5CCC(N6Cc7cc(NC(=O)c8cnn9cccnc89)c(N8CCOCC8)nc7C6=O)CC5)C4)cc3C2=O)C(=O)N1 (centres unmarked) [Example 407] | < 1 nM | ≥ 90% | A (A represents a DC90 value <10.0 nM) | – | – | –
O=C1CCC(N2C(=O)c3ccc(N4CC(F)(CN5CCC(n6cc7cc(NC(=O)c8cnn9cccnc89)c(C(F)F)cc7n6)CC5)C4)cc3C2=O)C(=O)N1 (centres unmarked) [Example 408, N-[6-(difluoromethyl)-2-[1-[[1-[2-(2,6-dioxo-3-piperidyl)-1,3-dioxo-isoindolin-5-yl]-3-fluoro-azetidin-3-yl]methyl]-4-piperidyl]indazol-5-yl]pyrazolo[1,5-a]pyrimidine-3-carboxamide] | < 1 nM | ≥ 90% | A (A represents a DC90 value <10.0 nM) | – | – | –
O=C1CCC(N2C(=O)c3ccc(N4CC(F)(CN5CCC(n6cc7cc(NC(=O)c8cnn9ccc(N%10CCOCC%10)nc89)c(C(F)F)cc7n6)CC5)C4)cc3C2=O)C(=O)N1 (centres unmarked) [Example 409] | 1 to 5 nM | ≥ 90% | B (B represents a DC90 value ≥10.0 nM and <25.0 nM) | – | – | –
O=C1CCC(N2C(=O)c3ccc(N4CC(F)(CN5CCC(n6cc7cc(NC(=O)c8cnn9ccc(N%10C[C@H]%11C[C@@H]%10CO%11)nc89)c(C(F)F)cc7n6)CC5)C4)cc3C2=O)C(=O)N1 (some centres unmarked) [Example 410] | 5 to 10 nM | 80 to 90% | D (D represents a DC90 value ≥50 nM) | – | – | –
CC(C)Oc1cc2nn(C3CCN(CC4(F)CN(c5ccc6c(n5)C(=O)N(C5CCC(=O)NC5=O)C6=O)C4)CC3)cc2cc1NC(=O)c1cnn2cccnc12 (centres unmarked) [Example 411, N-(2-(1-((1-(6-(2,6-dioxopiperidin-3-yl)-5,7-dioxo-6,7-dihydro-5H-pyrrolo[3,4-b]pyridin-2-yl)-3-fluoroazetidin-3-yl)methyl)piperidin-4-yl)-6-isopropoxy-2H-indazol-5-yl)pyrazolo[1,5-a]pyrimidine-3-carboxamide] | 5 to 10 nM | 80 to 90% | D (D represents a DC90 value ≥50 nM) | – | – | –
O=C1CCC(N2C(=O)c3ccc(N4CC(CN5CCC([C@H](F)CN6Cc7cc(NC(=O)c8cnn9cccnc89)c(N8CCOCC8)cc7C6=O)CC5)C4)cc3C2=O)C(=O)N1 (stereo partly drawn) [Example 412, N-(2-((2S)-2-(1-((1-(2-(2,6-dioxopiperidin-3-yl)-1,3-dioxoisoindolin-5-yl)azetidin-3-yl)methyl)piperidin-4-yl)-2-fluoroethyl)-6-morpholino-1-oxoisoindolin-5-yl)pyrazolo[1,5-a]pyrimidine-3-carboxamide] | 1 to 5 nM | 80 to 90% | A (A represents a DC90 value <10.0 nM) | – | – | –
O=C1CCC(N2C(=O)c3ccc(N4CC(F)(CN5CCC([C@H](F)CN6Cc7cc(NC(=O)c8cnn9cccnc89)c(N8CCOCC8)cc7C6=O)CC5)C4)cc3C2=O)C(=O)N1 (some centres unmarked) [Example 413] | 1 to 5 nM | 80 to 90% | B (B represents a DC90 value ≥10.0 nM and <25.0 nM) | – | – | –
CC(C)Oc1cc2nn(C[C@@H](F)C3CCN(CC4(F)CN(c5ccc6c(c5)C(=O)N(C5CCC(=O)NC5=O)C6=O)C4)CC3)cc2cc1NC(=O)c1cnn2cccnc12 (some centres unmarked) [Example 414] | 1 to 5 nM | 80 to 90% | B (B represents a DC90 value ≥10.0 nM and <25.0 nM) | – | – | –
CC(C)Oc1cc2nn(C[C@@H](F)C3CCN(CC4CN(c5ccc6c(c5)C(=O)N(C5CCC(=O)NC5=O)C6=O)C4)CC3)cc2cc1NC(=O)c1cnn2cccnc12 (some centres unmarked) [Example 415] | 1 to 5 nM | 80 to 90% | A (A represents a DC90 value <10.0 nM) | – | – | –
CC(C)Oc1nc2nn(C3CCN(CC4(F)CN(c5ccc6c(c5)CN(C5CCC(=O)NC5=O)C6=O)C4)CC3)cc2cc1NC(=O)c1cnn2cccnc12 (centres unmarked) [Example 416, N-[2-[1-[[1-[2-(2,6-dioxo-3-piperidyl)-1-oxo-isoindolin-5-yl]-3-fluoro-azetidin-3-yl]methyl]-4-piperidyl]-6-isopropoxy-pyrazolo[3,4-b]pyridin-5-yl]pyrazolo[1,5-a]pyrimidine-3-carboxamide] | < 1 nM | 80 to 90% | A (A represents a DC90 value <10.0 nM) | – | – | –
O=C1CCC(N2C(=O)c3ccc(N4CC5(CCCN(C6CCC(n7cc8cc(NC(=O)c9cnn%10cccnc9%10)c(OCC9CC9)cc8n7)CC6)C5)C4)cc3C2=O)C(=O)N1 (centres unmarked) [Example 417, N-(6-(cyclopropylmethoxy)-2-(4-(2-(2-(2,6-dioxopiperidin-3-yl)-1,3-dioxoisoindolin-5-yl)-2,6-diazaspiro[3.5]nonan-6-yl)cyclohexyl)-2H-indazol-5-yl)pyrazolo[1,5-a]pyrimidine-3-carboxamide] | < 1 nM | ≥ 90% | A (A represents a DC90 value <10.0 nM) | – | – | –
O=C1CCC(N2Cc3cc(N4CC(F)(CN5CCC(n6cc7cc(NC(=O)c8cnn9cccnc89)c(OCC8CC8)cc7n6)CC5)C4)cc(F)c3C2=O)C(=O)N1 (centres unmarked) [Example 420, N-[6-(cyclopropylmethoxy)-2-[1-[[1-[2-(2,6-dioxo-3-piperidyl)-7-fluoro-1-oxo-isoindolin-5-yl]-3-fluoro-azetidin-3-yl]methyl]-4-piperidyl]indazol-5-yl]pyrazolo[1,5-a]pyrimidine-3-carboxamide] | < 1 nM | ≥ 90% | A (A represents a DC90 value <10.0 nM) | – | – | –
O=C1CCC(N2Cc3cc(N4CC(F)(CN5CCC(n6cc7cc(NC(=O)c8cnn9cccnc89)c(OCC8CC8)cc7n6)CC5)C4)c(F)cc3C2=O)C(=O)N1 (centres unmarked) [Example 421] | < 1 nM | 80 to 90% | A (A represents a DC90 value <10.0 nM) | – | – | –
CC(C)Oc1cc2nn(C3CCN(CC4(F)CN(c5cc6c(cn5)C(=O)N(C5CCC(=O)NC5=O)C6=O)C4)CC3)cc2cc1NC(=O)c1cnn2cccnc12 (centres unmarked) [Example 422, N-(2-(1-((1-(2-(2,6-dioxopiperidin-3-yl)-1,3-dioxo-2,3-dihydro-1H-pyrrolo[3,4-c]pyridin-6-yl)-3-fluoroazetidin-3-yl)methyl)piperidin-4-yl)-6-isopropoxy-2H-indazol-5-yl)pyrazolo[1,5-a]pyrimidine-3-carboxamide] | 1 to 5 nM | 70 to 80% | C (C represents a DC90 value ≥25.0 nM and <50 nM) | – | – | –
